Structures are written as SMILES.

The values below come from patent US20050107386A1, “Methods of treating diseases and disorders by targeting multiple kinases” (priority 2003, published 2005).

What all share (format): biochemical
Common to all, as to conditions: 3 μM; percent of control kinase activity

One assay addresses MSK1(h) (Homo sapiens, UniProt O75582). In words: MSK1(h) kinase assay. As for the experimental part: (§1) Six compounds (presumptive single agents) were tested against a panel of 50 kinases. The results are presented in Table 2; numbers for each kinase indicate the percent of control kinase activity in the presence of a 3μM concentration of the indicated agent.
(§2) Agents that target two or more different kinases are useful in the methods of the invention as described elsewhere herein. Such compounds may be identified, and their effect on certain kinases may be identified, using the assays briefly described below in Examples 4-83. Each of these assays was carried out as described in Davies et al., Biochem. J., 351:95-105 (2000). All assays were carried out at 10 μM ATP unless otherwise noted.
(§3) In a final reaction volume of 25 μl, MSK1 (h) (5-10 mU) is incubated with 8 mM MOPS pH 7.0, 0.2 mM EDTA, 30 μM […] (SEQ ID NO:2), 10 mM MgAcetate and [γ-^33P-ATP] (specific activity approx. 500 cpm/pmol, concentration as required). The reaction is initiated by the addition of Mg^2+ [γ-^33P-ATP]. After incubation for 40 minutes at room temperature, the reaction is stopped by the addition of 5 μl of a 3% phosphoric acid solution. 10 μl of the reaction is then spotted onto a P30 filtermat and washed three times for 5 minutes in 75 mM phosphoric acid and once in methanol prior to drying and scintillation counting.

The target of the next assay is Rsk2(h) (Homo sapiens, UniProt P51812). In words: Rsk2(h) kinase assay. The method, then:
as §1, §2
as §3, with “Rsk2(h)” for “MSK1 (h)”, “NO:11),” for “NO:2),”

The target in another assay is T1, PRAK(h) (Homo sapiens, UniProt Q8IW41).
T1 sequence (Q8IW41 1-473): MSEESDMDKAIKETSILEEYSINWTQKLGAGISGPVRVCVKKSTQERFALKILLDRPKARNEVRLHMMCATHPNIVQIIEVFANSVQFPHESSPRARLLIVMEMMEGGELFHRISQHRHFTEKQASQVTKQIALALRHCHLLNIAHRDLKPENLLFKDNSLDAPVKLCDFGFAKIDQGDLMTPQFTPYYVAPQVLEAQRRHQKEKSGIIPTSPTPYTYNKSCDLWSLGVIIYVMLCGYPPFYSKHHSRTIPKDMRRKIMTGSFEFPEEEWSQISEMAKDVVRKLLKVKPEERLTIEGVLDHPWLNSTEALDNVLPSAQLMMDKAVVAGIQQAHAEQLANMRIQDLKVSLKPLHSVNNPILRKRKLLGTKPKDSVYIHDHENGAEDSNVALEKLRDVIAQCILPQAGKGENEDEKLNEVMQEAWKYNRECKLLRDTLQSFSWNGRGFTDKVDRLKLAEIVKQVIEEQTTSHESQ
As to the kind of experiment: PRAK(h) kinase assay. The method, then:
as §1, §2
In a final reaction volume of 25 μl, PRAK (h) (5-10 mU) is incubated with 50 mM Na-β-glycerophosphate pH 7.5, 0.1 mM EGTA, 30 μM […] (SEQ ID NO11), 10 mM MgAcetate and [γ-^33P-ATP] (specific activity approx. 500 cpm/pmol, concentration as required). The reaction is initiated by the addition of Mg^2+ [γ-^33P-ATP]. After incubation for 40 minutes at room temperature, the reaction is stopped by the addition of 5 μl of a 3% phosphoric acid solution. 10 μl of the reaction is then spotted onto a P30 filtermat and washed three times for 5 minutes in 50 mM phosphoric acid and once in methanol prior to drying and scintillation counting.

In another assay the target is PDGFRα(h) (Homo sapiens, UniProt P16234). In words: PDGFRα(h) kinase assay. The method, then:
as §1, §2
(§4) In a final reaction volume of 25 μl, PDGFRα (h) (5-10 mU) is incubated with 8 mM MOPS pH 7.0, 0.2 mM EDTA, 0.1 mg/ml poly(Glu, Tyr) 4:1, 10 mM MnCl2, 10 mM MgAcetate and [γ-^33P-ATP] (specific activity approx. 500 cpm/pmol, concentration as required). The reaction is initiated by the addition of Mg^2+ [γ-^33P-ATP]. After incubation for 40 minutes at room temperature, the reaction is stopped by the addition of 5 μl of a 3% phosphoric acid solution. 10 μl of the reaction is then spotted onto a Filtermat A and washed three times for 5 minutes in 75 mM phosphoric acid and once in methanol prior to drying and scintillation counting.

The target in the next assay is CSK(h) (Homo sapiens, UniProt P41240). As to the kind of experiment: CSK(h) kinase assay. As for the experimental part:
as §1, §2
as §4, with “CSK” for “PDGFRα”, “50” for “8”, “Tris” for “MOPS”, “7.5, 0.1” for “7.0, 0.2”, “EGTA, 0.1 mM NaVanadate, 0.1% β-mercaptoethanol,” for “EDTA,”

The next assay deals with PDGFRβ(h) (Homo sapiens, UniProt P09619). As to the kind of experiment: PDGFRβ(h) kinase assay. The method, then: as §1, §2
as §4, with “PDGFRβ” for “PDGFRα”

Sequence of PDGFRβ(h) (P09619 33-1106): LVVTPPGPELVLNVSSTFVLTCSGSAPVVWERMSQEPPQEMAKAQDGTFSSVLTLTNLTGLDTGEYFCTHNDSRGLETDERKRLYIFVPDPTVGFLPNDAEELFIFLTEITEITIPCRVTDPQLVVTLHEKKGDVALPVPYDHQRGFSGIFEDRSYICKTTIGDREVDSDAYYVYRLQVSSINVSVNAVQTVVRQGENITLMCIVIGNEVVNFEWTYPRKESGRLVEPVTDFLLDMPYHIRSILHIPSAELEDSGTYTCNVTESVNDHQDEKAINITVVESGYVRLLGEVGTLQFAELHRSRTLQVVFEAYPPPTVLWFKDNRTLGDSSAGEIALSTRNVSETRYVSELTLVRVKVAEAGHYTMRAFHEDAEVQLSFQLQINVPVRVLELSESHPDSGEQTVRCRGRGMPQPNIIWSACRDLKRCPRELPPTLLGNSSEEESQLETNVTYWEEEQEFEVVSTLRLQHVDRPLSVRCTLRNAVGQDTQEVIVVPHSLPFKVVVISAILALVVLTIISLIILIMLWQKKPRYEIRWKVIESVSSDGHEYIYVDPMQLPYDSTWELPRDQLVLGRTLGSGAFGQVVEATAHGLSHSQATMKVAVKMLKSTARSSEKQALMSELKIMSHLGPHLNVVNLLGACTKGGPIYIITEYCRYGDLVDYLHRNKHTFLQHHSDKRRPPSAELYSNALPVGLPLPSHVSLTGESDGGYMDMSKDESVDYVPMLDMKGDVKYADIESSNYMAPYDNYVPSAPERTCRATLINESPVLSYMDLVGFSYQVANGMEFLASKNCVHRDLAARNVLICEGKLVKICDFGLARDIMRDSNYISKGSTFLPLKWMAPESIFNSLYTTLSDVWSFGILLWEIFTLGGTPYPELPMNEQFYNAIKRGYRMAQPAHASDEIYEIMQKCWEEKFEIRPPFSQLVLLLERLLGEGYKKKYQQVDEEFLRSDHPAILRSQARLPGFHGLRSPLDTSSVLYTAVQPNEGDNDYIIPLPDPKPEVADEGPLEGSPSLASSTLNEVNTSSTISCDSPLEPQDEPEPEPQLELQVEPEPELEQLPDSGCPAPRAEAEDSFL
Sequence of Rsk2(h) (P51812 whole entry): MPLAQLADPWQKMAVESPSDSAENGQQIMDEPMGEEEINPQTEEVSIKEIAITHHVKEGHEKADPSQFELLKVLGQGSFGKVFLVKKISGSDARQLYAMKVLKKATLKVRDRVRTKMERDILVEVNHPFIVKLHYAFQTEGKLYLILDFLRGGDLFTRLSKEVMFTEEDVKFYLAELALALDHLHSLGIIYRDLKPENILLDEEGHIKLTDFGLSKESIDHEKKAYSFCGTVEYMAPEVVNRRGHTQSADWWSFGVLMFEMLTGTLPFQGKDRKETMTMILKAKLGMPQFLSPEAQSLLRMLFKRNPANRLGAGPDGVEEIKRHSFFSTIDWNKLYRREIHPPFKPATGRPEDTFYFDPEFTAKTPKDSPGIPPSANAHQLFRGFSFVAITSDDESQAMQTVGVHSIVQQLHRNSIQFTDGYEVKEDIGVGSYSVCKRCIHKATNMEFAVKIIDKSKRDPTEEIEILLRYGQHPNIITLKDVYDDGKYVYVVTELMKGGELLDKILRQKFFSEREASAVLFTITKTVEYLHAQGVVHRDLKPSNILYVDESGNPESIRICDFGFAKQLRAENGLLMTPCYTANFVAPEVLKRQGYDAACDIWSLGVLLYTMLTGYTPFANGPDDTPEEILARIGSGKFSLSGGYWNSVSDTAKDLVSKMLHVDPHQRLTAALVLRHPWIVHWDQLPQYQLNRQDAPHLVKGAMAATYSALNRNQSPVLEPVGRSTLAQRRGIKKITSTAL
Sequence of MSK1(h) (O75582 whole entry): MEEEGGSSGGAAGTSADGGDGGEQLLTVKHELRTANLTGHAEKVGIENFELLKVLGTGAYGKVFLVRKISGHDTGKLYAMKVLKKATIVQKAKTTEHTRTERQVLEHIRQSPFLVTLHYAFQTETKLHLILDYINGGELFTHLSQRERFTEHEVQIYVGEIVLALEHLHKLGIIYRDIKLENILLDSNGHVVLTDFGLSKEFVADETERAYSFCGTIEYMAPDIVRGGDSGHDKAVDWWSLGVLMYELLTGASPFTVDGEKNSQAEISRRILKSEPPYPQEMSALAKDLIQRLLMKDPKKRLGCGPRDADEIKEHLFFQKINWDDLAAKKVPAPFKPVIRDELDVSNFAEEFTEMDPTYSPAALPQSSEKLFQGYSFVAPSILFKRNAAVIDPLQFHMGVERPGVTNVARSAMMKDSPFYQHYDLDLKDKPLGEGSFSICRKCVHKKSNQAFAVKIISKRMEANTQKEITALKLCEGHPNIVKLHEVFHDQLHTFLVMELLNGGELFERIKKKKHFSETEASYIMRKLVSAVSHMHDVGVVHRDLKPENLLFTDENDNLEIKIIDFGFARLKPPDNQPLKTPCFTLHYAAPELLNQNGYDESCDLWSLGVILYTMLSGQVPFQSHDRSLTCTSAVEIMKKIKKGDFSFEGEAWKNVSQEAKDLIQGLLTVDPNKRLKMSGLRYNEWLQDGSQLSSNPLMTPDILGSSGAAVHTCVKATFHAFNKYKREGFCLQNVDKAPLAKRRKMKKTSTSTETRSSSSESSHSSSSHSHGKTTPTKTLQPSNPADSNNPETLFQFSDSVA
Sequence of PDGFRα(h) (P16234 24-1089): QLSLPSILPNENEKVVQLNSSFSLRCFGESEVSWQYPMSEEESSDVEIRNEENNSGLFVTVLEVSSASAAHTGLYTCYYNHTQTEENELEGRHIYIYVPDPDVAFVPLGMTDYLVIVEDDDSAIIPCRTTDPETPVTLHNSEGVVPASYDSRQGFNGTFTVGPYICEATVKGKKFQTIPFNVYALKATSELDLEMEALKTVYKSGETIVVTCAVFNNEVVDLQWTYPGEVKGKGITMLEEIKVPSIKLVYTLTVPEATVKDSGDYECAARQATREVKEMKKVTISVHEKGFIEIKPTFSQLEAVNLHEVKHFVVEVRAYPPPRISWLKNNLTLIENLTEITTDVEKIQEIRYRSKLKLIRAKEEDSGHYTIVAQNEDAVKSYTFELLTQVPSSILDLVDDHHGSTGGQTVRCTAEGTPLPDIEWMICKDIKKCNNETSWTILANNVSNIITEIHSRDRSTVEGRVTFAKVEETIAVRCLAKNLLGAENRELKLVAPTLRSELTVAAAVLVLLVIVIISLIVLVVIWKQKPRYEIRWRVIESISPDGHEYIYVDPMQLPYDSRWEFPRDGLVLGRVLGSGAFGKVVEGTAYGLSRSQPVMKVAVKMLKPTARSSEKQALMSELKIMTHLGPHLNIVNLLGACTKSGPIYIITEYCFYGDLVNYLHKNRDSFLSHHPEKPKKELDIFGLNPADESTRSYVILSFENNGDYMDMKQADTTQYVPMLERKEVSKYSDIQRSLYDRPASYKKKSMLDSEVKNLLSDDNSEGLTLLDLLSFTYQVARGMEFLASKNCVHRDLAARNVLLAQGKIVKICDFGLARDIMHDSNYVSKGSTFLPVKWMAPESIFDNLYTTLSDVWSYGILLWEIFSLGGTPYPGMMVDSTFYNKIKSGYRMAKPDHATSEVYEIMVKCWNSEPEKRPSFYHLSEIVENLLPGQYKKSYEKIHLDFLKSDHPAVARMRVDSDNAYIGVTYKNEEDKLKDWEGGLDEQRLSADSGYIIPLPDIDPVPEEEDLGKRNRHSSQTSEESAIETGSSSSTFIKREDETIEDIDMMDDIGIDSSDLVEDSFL
Sequence of CSK(h) (P41240 whole entry): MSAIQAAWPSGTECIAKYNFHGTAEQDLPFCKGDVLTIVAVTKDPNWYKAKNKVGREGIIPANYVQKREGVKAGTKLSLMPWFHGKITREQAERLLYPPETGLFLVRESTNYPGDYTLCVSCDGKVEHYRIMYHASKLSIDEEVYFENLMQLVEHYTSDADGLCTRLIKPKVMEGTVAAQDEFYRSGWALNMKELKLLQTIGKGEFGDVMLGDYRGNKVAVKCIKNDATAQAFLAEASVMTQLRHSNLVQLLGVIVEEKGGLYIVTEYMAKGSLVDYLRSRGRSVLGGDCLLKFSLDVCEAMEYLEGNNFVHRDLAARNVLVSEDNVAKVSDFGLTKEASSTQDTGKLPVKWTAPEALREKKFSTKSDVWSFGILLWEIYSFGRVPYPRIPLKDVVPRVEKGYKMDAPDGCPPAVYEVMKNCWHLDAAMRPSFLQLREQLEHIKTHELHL

Turning to `CC(C)Cc1nc(-c2ccc3[nH]nc(-c4ccc5cc(OCCN6CCCC6)ccc5c4)c3c2)n[nH]1` [CC002, 5-(5-Isobutyl-1H-[1,2,4]Triazol-3-yl)-3-[6-(2-Pyrrolidin-1-yl-Ethoxy)-Naphthalen-2-yl]-1H-Indazole], the “Inhibitory activity (% of control), MSK1(h)” value on MSK1(h) was 45 % of control. Also, the “Inhibitory activity (% of control), Rsk2(h)” value at Rsk2(h) is 5 % of control. Also, the “Inhibitory activity (% of control), PRAK(h)” value at PRAK(h) is listed as 6 % of control. On PDGFRα(h), the “Inhibitory activity (% of control), PDGFRα(h)” value was 71 % of control.

Consider `O=C(NC1CCCC1)c1cccc(-c2n[nH]c3ccc(-c4nc[nH]n4)cc23)c1` [CC007, 3-(5-(1H-1,2,4-triazol-3-yl)(1H-indazol-3-yl))phenyl-N-cyclopentylcarboxamide, reference compound], for which, at MSK1(h), the “Inhibitory activity (% of control), MSK1(h)” value is 89 % of control. Further, the “Inhibitory activity (% of control), Rsk2(h)” value on Rsk2(h) is on record as 45 % of control. Moreover, at PRAK(h), the “Inhibitory activity (% of control), PRAK(h)” value is recorded as 0 % of control. In addition, on PDGFRα(h), the “Inhibitory activity (% of control), PDGFRα(h)” value was 108 % of control.

Consider `Fc1ccc(-c2n[nH]c3ccc(-c4n[nH]c(C5CCCC5)n4)cc23)cc1` [CC006, 5-(5-Cyclopentyl-1H-[1,2,4]triazol-3-yl)-3-(4-fluoro-phenyl)-1H-indazole, reference compound], for which the “Inhibitory activity (% of control), MSK1(h)” value on MSK1(h) was 72 % of control. In addition, on Rsk2(h), the “Inhibitory activity (% of control), Rsk2(h)” value was 31 % of control. The “Inhibitory activity (% of control), PRAK(h)” value on PRAK(h) is reported as 12 % of control. Besides, at PDGFRα(h), the “Inhibitory activity (% of control), PDGFRα(h)” value is on record as 86 % of control.

Take `COc1ccc2cc(-c3n[nH]c4ccc(-c5n[nH]c(CN6CCOCC6)n5)cc34)ccc2c1` [CC001, 3-(6-Methoxynaphthalen-2-yl)-5-(5-Morpholin-4-Ylmethyl-1H-[1,2,4]Triazol-3-yl)-1H-Indazole]: the “Inhibitory activity (% of control), MSK1(h)” value at MSK1(h) was 62 % of control. In addition, the “Inhibitory activity (% of control), CSK(h)” value at CSK(h) is 95 % of control. Further, the “Inhibitory activity (% of control), PDGFRβ(h)” value on PDGFRβ(h) was 94 % of control. Also, the “Inhibitory activity (% of control), Rsk2(h)” value at Rsk2(h) was 6 % of control. In addition, at PRAK(h), the “Inhibitory activity (% of control), PRAK(h)” value is listed as 12 % of control. The “Inhibitory activity (% of control), PDGFRα(h)” value on PDGFRα(h) is 72 % of control.

Consider `CC(C)(C)Cc1nc(-c2ccc3[nH]nc(-c4ccc5cc(OCc6ccccn6)ccc5c4)c3c2)n[nH]1` [CC004, 5-[5-(2,2-Dimethyl-propyl)-1H-[1,2,4]triazol-3-yl]-3-[6-(pyridine-2-ylmethoxy)-naphthalen-2-yl]-1H-indazole], for which the “Inhibitory activity (% of control), MSK1(h)” value at MSK1(h) is 76 % of control. For the same compound, the “Inhibitory activity (% of control), CSK(h)” value on CSK(h) is 123 % of control. Moreover, the “Inhibitory activity (% of control), PDGFRβ(h)” value on PDGFRβ(h) is given as 91 % of control. The “Inhibitory activity (% of control), Rsk2(h)” value on Rsk2(h) is reported as 34 % of control. The “Inhibitory activity (% of control), PRAK(h)” value at PRAK(h) is reported as 24 % of control. Further, the “Inhibitory activity (% of control), PDGFRα(h)” value on PDGFRα(h) was 77 % of control.

Consider `CCN1CCC[C@H]1COc1ccc2cc(-c3n[nH]c4ccc(-c5nc(CC(C)(C)C)n[nH]5)cc34)ccc2c1` [CC005, 2-[((2s)-1-ethylpyrrolidin-2-yl)methoxy]-6-{5-[3-(2,2-Dimethylpropyl)(1H-1,2,4,-triazol-5-yl)](1H-indazol-3-yl)}naphthalene], for which, on MSK1(h), the “Inhibitory activity (% of control), MSK1(h)” value was 25 % of control. Further, the “Inhibitory activity (% of control), CSK(h)” value at CSK(h) is given as 88 % of control. The “Inhibitory activity (% of control), PDGFRβ(h)” value at PDGFRβ(h) was 20 % of control. Besides, the “Inhibitory activity (% of control), Rsk2(h)” value at Rsk2(h) is 3 % of control. For the same compound, the “Inhibitory activity (% of control), PRAK(h)” value at PRAK(h) was 10 % of control. Also, at PDGFRα(h), the “Inhibitory activity (% of control), PDGFRα(h)” value is 28 % of control.
